From ChEMBL document CHEMBL1128304, “The synthesis of N-hydroxy-N'-phenyloctanediamide and its inhibitory effect on proliferation of AXC rat prostate cancer cells” (1995)

Key:
[1] = tested on: HL-60; assay: Percent of HL-60 cells (from human acute promyelocytic leukemia) to develop the ability to reduce nitroblue tetrazolium after administration (1 uM); type: functional; parameters: scale not given: the % may be the effect or the level left
[2] = tested on: T/5; assay: Tested for morphological alterations in T/5 cells after administration along with DMSO (0.1%); type: functional, cell-based; details: Rattus norvegicus
[3] = tested on: Erythroleukemia cell line; assay: Percent of murine erythroleukemia cells that became benzidine reactive after administration (2.5 uM); type: functional, Mus musculus

Q: With `O=C(CCCCCCC(=O)Nc1ccccc1)NO` [VORINOSTAT] as the compound, how does the Activity [1] read?
A: Its Activity is 21%.

Q: And the Activity [2]?
A: The Activity was “No morphological alterations observed”.

Q: What about the Activity [3] of the same compound?
A: The Activity was 70%.
